Here are results for 1 compound from patent US20230117328A1, “METHODS TO TREAT CANCER USING (R)-N-(3-FLUORO-4-((3-((1-HYDROXYPROPAN-2-YL)AMINO)-1H-PYRAZOLO[3,4-B]PYRIDIN-4-YL)OXY)PHENYL)-3-(4-FLUOROPHENYL)-1-ISOPROPYL-2,4-DIOXO-1,2,3,4-TETRAHYDROPYRIMIDINE-5-CARBOXAMIDE” (Array BioPharma Inc., priority 2020, published 2023).

This series has as its system female Sprague Dawley rats. The conditions noted are these: for ocular histopathology findings, Day 28: 10 rats.
Where [1] appears, read: 100 mg/kg PO QD Days 1-14 (Group 4).
Where [2] appears, read: 200 mg/kg PO QD Days 1-14 (Group 5).
Where [3] appears, read: 200 mg/kg PO QD Days 1-14 (Group 5), 9 rats.

Where two headings read alike, the source gives them in different places.

Turning to `CC(C)n1cc(C(=O)Nc2ccc(Oc3ccnc4[nH]nc(N[C@H](C)CO)c34)c(F)c2)c(=O)n(-c2ccc(F)cc2)c1=O.Cl` [Compound 1 HCl, (R)—N-(3-fluoro-4-((3-((1-hydroxypropan-2-yl)amino)-1H-pyrazolo[3,4-b]pyridin-4-yl)oxy)phenyl)-3-(4-fluorophenyl)-1-isopropyl-2,4-dioxo-1,2,3,4-tetrahydropyrimidine-5-carboxamide hydrochloride], the “ocular histopathology findings, Day 56” value (100 mg/kg PO QD Days 1-7 (Group 2), recovery necropsy, 5 rats) is listed as “unilateral minimal diffuse atrophy of the ONL which was considered an equivocal change”. In addition, the “ocular histopathology findings, Day 28” value (100 mg/kg PO QD Days 1-7 (Group 2; Test Article 1, Schedule 1)) is “No test article-related observations”. Moreover, under setting [1], the “incidence of retinal changes (overall)” value was “low incidence” and the “reversibility of ocular (retinal) changes” value is given as “did not reverse”. The “animals with ocular (retinal) changes, Day 28” value (100 mg/kg PO QD Days 1-14 (Group 4; Test Article 1, Schedule 2), 9 rats) is “one animal (4F-7) had moderate atrophy of the outer nuclear layer (ONL) of the retina”. Further, the “ocular histopathology findings, Day 28” value (200 mg/kg PO QD Days 1-7 (Group 3; Test Article 2, Schedule 1)) is given as “No test article-related observations”. Besides, under setting [2], the “incidence of retinal changes (overall)” value is given as “high incidence” and the “reversibility of ocular (retinal) changes” value is reported as “did not reverse”. For the same compound, under setting [3], the “animals with mild atrophy of ONL (thinning to approximately 6-7 nuclei), Day 28” value is “one animal”; the “animals with minimal atrophy of ONL (thinning to approximately 7-8 nuclei), Day 28” value is recorded as “two animals”; the “animals with minimal degeneration of the rods and cones layer, Day 28” value is listed as “six animals”; the “animals with moderate atrophy of ONL (thinning to approximately 4-5 nuclei), Day 28” value is listed as “five animals”. Moreover, the “animals with moderate degeneration of rod and cone processes, Day 28” value under setting [3] is reported as “two animals”. The “animals with ocular (retinal) changes, Day 28” value (200 mg/kg PO QD Days 1-14 (Group 5; Test Article 2, Schedule 2), 9 rats) is recorded as “retinal changes were observed in eight animals”. The “tolerability (body weight, clinical observations, deaths)” value (female rats, 100 or 200 mg/kg PO QD for 7 or 14 days) was “well tolerated with no effects on body weight, adverse clinical observations or deaths related to test article”.
